Source: patent US12391919B2, “Culture medium, coating matrix and method for maturing midbrain dopaminergic progenitor cells” (NUWACELL BIOTECHNOLOGIES CO., LTD., priority 2022, dated 2025)

System: imDAPs
Experiment: Flow cytometry (FACS) analysis of FOXA2 expression in expanded imDAPs
Assay type: cell-based, human
Procedure: • 1. Individualize and collect cells by either Accutase or TrypLE treatment. • 2. Wash cells with 1 ml PBS and pellet cells at 250×g for 15 sec. • 3. Remove supernatant, add ˜200 μl of 4% PFA, mix and fix for 10 min at RT. • 4. Pellet cells at 350×g for 5 min. • 5. Wash cells by 1 ml of FACS buffer and pellet cells at 350×g for 5 min. • 6. Remove supernatant, add 200 μl/tube of FACS buffer/0.1% TritonX, mix for 10 min at RT. • 7. Wash cells by 1 ml of FACS buffer and pellet cells at 350×g for 5 min. • 8. Remove supernatant, add 200 μl/tube of primary antibody diluted in FACS buffer, mix gently, and incubate for 30 min at RT. • 9. Wash cells by 1 ml of FACS buffer and pellet cells at 350×g for 5 min. • 10. Remove supernatant, and add 200 μl of secondary antibody diluted in FACS buffer, mix gently, and incubate for 30 min at RT. • 11. Wash cells by 1 ml of FACS buffer and pellet cells at 300×g for 5 min. • 12. Remove supernatant, add 200 μl of FACS buffer, and run samples on the flow cytometry. (2) qRT-PCR • 1. For qRT-PCR analysis of mRNA gene expression, RNA should be harvested from at least 2×10^6 cells. • 2. Harvest cells, add 350 μl of buffer RLT+1% (vol/vol) s-mercaptoethanol to the well, transfer the lysate to a 1.5 ml tube, and put it immediately on ice. • 3. Perform RNA extraction using the Tiangen Kit (DP430), and follow the manufacturer's protocol ‘Purification of total RNA from animal and human cells’. • 4. When the RNA extraction was completed, determine the RNA concentration using a Nanodrop instrument. • 5. Perform the first-strand cDNA synthesis reaction with 1 μg of RNA using the HiScript TM II Q RT SuperMIX for qPCR(+gDNA wiper) Kit (Vazyme, #R223-01) for RT-qPCR. Follow the manufacturer's ‘First-Strand cDNA Synthesis’ protocol. This reaction would yield a 20 μl product. • 6. Dilute the 10 μl cDNA product in 80 μl of nuclease-free water. • 7. Pipette the diluted cDNA product (1 μl), Sybr green master mix (5 μl, Transgen, #AQ131) and 0.95 μM reverse/forward primer mix (4 μl) into a 384-well PCR plate in triplicate, either manually or using an automated pipetting robot. The complete primer panel included the target genes and the housekeeping gene (RPL13A). In the analysis, also included a sample of undifferentiated hPSCs to determine the gene expression levels relative to the expression in hPSCs. • 8. Analyze the samples by running a quantitative PCR on the LightCycler 480 instrument using a 40× cycle two-step protocol with a 60° C., 60 sec annealing/elongation step and a 95° C., 30 sec denaturation step. The average CT values from the three technical replicates were used for calculations of relative gene expression using the ΔΔCT method. For each gene, calculate the FC of the differentiated samples relative to the undifferentiated control sample using the housekeeping gene for normalization. Next, calculate the average of the FC values on the basis of the housekeeping gene. (3) Immunocytochemical Analysis • 1. Cell fixation: Remove the medium from the cells and wash with PBS. Add 4% (wt/vol) PFA (e.g., 200 μl to a well in a 48-well plate) and incubate at room temperature (RT) for 15 min. after incubation, wash the cells three times in PBS. • 2. Blocking: Remove PBS from the wells and add blocking solution to the cells, add enough volume to cover the cells. Leave the cells in blocking solution for 1 h at RT. • 3. Primary antibodies incubation: Remove the blocking solution from the cells and add the primary antibody solutions (˜100 μl/cm^2). […]

| Compound | expression of Foxa2 (percentage of Foxa2+ imDAPs) (Example 9, P1 cells compared with P0 cells, DLL4/VTN-coated, FIG. 5C) | FOXA2 expression (percentage of Foxa2+ imDAPs) (Example 8, VTN or DLL4/VTN coating, with or without SB431542, FIG. 4C) |
| --- | --- | --- |
| c1ccc2c(-c3cnn4cc(-c5ccc(N6CCNCC6)cc5)cnc34)ccnc2c1 [LDN193189] | slightly decreased the expression of FOXA2 for imDAPs |  |
| DLL4: Notch agonist used as second coating matrix |  | could improve FOXA2 expression |
